Data: patent publication US20260207578A1, “COMPOUND BASED ON SULFUR/OXYGEN SUBSTITUTED GLUTARIMIDE-BASED ISOINDOLINONE SKELETON AND USE THEREOF” (Gluetacs Therapeutics (Shanghai) Co., LTD., priority 2022, published 2026)
pIC50: −log10 of the molar value.

What was measured:
[1] = target: T1, human Cereblon WT GST-tagged protein (Homo sapiens, UniProt Q96SW2); experiment: CRBN-binding affinity, HTRF (CEREBLON BINDING kit); conditions: displacement of Thalidomide-Re reagent, 3 hours at room temperature
T1 construct: purchased CISBIO 64BDCRBNPEH
In short: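 Compounds displace a thalidomide-Re tracer from GST-tagged human Cereblon WT, detected with an Eu-labelled anti-GST antibody by time-resolved fluorescence. Signal at 620 nm was normalised against solvent and blank controls.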

[2] = target: T2, GSPT1 (Homo sapiens, UniProt P15170+Q96SW2); experiment: Western-blot assay, substrate protein in hPBMCs; format: cell-based; conditions: hPBMC cells, 24 hours, tested at 50 nM and 500 nM, table does not say which
T2 construct: endogenous in cells; host or cells: human PBMCs (Milecell Biotechnologies)
In short: (§1)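 Thawed hPBMCs, 1×10^6 cells/mL; 24 h compound; RIPA + phosphatase inhibitor lysis, BCA-normalised loading, SDS-PAGE, NC transfer, immunodetection. Bands vs internal control → % remaining; DC50 = concentration at 50% of DMSO band intensity.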

[3] = target: T3, Wee1 (Homo sapiens, UniProt P30291+Q96SW2); experiment: Western-blot assay, substrate protein in hPBMCs; format: cell-based; conditions: hPBMC cells, 24 hours, tested at 50 nM and 500 nM, table does not say which
T3 construct: endogenous in cells; host or cells: human PBMCs (Milecell Biotechnologies)
In short: as §1

[4] = target: T4, IKZF3 (Homo sapiens, UniProt Q96SW2+Q9UKT9); experiment: Western-blot assay, substrate protein in hPBMCs; format: cell-based; conditions: hPBMC cells, 24 hours, tested at 50 nM and 500 nM, table does not say which
T4 construct: endogenous in cells; host or cells: human PBMCs (Milecell Biotechnologies)
Experimental: (§2) The effect of the compounds of the present disclosure on the expression of target proteins in cells was detected using conventional Western blot analysis.
(§3) Human peripheral blood mononuclear cells (hPBMCs) at a density of 1×10^6 cells/mL were thawed according to the PBMC Recovery Protocol (Milecell Biotechnologies Inc, Shanghai). The cells were then treated with the compounds of the present disclosure (including the compounds listed in Tables 1 and 2, and the Examples A1-A20 and 1-116 compounds) at concentrations of 50 nM and 500 nM.
(§4) Controls included a negative control (DMSO) and a positive control (the commercial immunomodulatory drug lenalidomide), both processed following the identical experimental protocol as the compounds of the present disclosure. After 24 hours of compounds treatment, cells were harvested and lysed in RIPA protein lysate containing phosphatase inhibitors on ice for 30-60 min, followed by centrifugation. The supernatant was aspirated as the extracted total cell protein. The protein concentration of the supernatant was determined using the conventional BCA (Bicinchoninic Acid) assay. The supernatant was then mixed with 4× SDS sample loading buffer, denatured at 95° C. for 5 minutes, and then subjected to SDS-PAGE electrophoresis on a polyacrylamide gel. Proteins were then transferred to a nitrocellulose (NC) membrane, blocked at room temperature for 1-2 h, and processed for antibody incubation and detection according to the manufacturer's instructions (Cell Signaling Technology).
(§5) Half-Maximal Degradation Concentration value (the drug concentration required for degrading proteins by 50%, abbreviated as DC50) reads method: comparing the grayscale values of Western blot bands from drug-treated samples with those from blank DMSO-treated controls, and identifying the drug concentration range at which the grayscale value is half that of the DMSO-treated control bands.
(§6) DC50 values can be calculated using ImageJ software to measure grayscale values of Western blot bands from drug-treated samples. The concentration-response curve is fitted to estimate the drug concentration corresponding to half the grayscale value.
(§7) Target protein remaining (%) refers to the percentage of target protein remaining in hPBMC cells after treatment with protein degrader compounds.
(§8) Calculation method for protein remaining (%): Use ImageJ software to measure grayscale values of Western blot bands from drug (protein degrader)-treated samples. The grayscale value of drug-treated bands is divided by that of internal control protein bands, and the resulting quotient is normalized to obtain the relative percentage of remaining target protein after protein degrader treatment.
(§9) Target protein degradation rate (%)=100%−target protein remaining (%).

[5] = target: T5, IKZF1 (Homo sapiens, UniProt Q13422+Q96SW2); experiment: Western-blot assay, substrate protein in hPBMCs; format: cell-based; conditions: hPBMC cells, 24 hours, tested at 50 nM and 500 nM, table does not say which
T5 construct: endogenous in cells; host or cells: human PBMCs (Milecell Biotechnologies)
Experimental: as §2, §3, §4, §5, §6, §7, §8, §9

[6] = target: T6, IKZF2 (Homo sapiens, UniProt Q96SW2+Q9UKS7); experiment: Western-blot assay, substrate protein in hPBMCs; format: cell-based; conditions: hPBMC cells, 24 hours, tested at 50 nM and 500 nM, table does not say which
T6 construct: endogenous in cells; host or cells: human PBMCs (Milecell Biotechnologies)
In short: as §1

[7] = target: T7, CK1α (Homo sapiens, UniProt P48729+Q96SW2); experiment: Western-blot assay, substrate protein in hPBMCs; format: cell-based; conditions: hPBMC cells, 24 hours, tested at 50 nM and 500 nM, table does not say which
T7 construct: endogenous in cells; host or cells: human PBMCs (Milecell Biotechnologies)
In short: as §1

T5 sequence (Q13422 whole entry): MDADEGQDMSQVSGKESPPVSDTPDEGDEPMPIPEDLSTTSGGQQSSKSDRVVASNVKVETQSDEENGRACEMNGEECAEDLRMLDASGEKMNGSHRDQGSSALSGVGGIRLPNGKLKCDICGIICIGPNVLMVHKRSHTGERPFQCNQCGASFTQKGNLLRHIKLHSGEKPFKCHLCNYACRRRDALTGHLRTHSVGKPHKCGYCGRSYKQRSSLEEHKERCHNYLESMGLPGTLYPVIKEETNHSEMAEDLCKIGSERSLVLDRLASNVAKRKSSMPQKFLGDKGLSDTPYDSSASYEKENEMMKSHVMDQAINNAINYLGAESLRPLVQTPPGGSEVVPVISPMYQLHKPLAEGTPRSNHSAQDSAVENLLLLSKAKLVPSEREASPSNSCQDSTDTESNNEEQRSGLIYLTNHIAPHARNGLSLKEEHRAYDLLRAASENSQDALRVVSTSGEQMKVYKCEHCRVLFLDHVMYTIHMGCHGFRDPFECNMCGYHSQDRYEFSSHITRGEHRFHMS
T5 sequence (Q96SW2 whole entry): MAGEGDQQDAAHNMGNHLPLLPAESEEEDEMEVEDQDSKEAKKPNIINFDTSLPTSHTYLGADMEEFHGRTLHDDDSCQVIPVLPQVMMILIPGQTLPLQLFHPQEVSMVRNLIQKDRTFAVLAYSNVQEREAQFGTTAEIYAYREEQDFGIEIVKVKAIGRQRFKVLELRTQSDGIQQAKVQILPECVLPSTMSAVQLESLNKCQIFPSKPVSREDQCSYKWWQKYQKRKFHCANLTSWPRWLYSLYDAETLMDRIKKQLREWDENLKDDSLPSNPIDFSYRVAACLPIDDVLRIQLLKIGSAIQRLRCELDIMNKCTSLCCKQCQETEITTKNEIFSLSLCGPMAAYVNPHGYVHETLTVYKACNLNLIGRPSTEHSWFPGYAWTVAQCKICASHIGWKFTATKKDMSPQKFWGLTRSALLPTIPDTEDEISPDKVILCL
T5 sequence (Q16531 whole entry partner): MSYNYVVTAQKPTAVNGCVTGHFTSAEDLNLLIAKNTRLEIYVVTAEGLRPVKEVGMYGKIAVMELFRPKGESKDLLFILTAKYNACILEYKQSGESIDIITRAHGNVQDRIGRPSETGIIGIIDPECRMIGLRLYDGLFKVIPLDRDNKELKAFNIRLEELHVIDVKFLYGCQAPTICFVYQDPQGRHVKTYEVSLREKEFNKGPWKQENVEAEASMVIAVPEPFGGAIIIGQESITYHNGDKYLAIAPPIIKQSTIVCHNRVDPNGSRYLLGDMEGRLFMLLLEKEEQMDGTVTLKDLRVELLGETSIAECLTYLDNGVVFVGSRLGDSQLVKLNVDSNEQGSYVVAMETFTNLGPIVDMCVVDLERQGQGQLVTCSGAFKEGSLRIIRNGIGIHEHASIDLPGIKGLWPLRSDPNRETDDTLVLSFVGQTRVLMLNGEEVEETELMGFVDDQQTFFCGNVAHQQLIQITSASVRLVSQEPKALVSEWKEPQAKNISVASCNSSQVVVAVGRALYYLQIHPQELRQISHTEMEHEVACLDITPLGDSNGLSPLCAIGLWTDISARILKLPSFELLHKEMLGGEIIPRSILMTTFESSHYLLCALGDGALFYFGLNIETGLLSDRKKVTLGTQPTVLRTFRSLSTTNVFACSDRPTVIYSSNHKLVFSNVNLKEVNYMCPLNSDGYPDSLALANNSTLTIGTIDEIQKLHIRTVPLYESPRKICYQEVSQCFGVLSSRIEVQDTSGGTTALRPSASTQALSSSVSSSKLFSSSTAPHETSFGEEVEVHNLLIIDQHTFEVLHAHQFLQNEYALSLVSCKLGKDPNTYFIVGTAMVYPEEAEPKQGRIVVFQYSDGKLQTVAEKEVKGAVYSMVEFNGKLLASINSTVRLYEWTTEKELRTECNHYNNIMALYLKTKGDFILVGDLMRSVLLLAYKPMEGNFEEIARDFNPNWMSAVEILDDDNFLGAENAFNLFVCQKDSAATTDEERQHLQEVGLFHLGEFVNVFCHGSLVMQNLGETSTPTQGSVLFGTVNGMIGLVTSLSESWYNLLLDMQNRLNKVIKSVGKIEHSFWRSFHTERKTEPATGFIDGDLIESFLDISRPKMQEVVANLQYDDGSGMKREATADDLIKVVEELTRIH
T7 sequence (P48729 whole entry): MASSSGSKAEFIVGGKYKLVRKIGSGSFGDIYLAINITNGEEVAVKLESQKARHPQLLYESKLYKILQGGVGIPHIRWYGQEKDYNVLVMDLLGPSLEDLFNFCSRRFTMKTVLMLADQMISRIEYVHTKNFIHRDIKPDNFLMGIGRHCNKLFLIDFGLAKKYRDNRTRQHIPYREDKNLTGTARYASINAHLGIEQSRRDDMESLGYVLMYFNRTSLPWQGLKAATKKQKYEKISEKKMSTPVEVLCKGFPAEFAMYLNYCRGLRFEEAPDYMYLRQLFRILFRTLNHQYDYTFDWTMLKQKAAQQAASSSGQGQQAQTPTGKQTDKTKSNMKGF
T7 sequence (Q96SW2 whole entry): as the sequence (Q96SW2 whole entry) above
T7 sequence (Q16531 whole entry partner): as the sequence (Q16531 whole entry partner) above
T6 sequence (Q9UKS7 whole entry): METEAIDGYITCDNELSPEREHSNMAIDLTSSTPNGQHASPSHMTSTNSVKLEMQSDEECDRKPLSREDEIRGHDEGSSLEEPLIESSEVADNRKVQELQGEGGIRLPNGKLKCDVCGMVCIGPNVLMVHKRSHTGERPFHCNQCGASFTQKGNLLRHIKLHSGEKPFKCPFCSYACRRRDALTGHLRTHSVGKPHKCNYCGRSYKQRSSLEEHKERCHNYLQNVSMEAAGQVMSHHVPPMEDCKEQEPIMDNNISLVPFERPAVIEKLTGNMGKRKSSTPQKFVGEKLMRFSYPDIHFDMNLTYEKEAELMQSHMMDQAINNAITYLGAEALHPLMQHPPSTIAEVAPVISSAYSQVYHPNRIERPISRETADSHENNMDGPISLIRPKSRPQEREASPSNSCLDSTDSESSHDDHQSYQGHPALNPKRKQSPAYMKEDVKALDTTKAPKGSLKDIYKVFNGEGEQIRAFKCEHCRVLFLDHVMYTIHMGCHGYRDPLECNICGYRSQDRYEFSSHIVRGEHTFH
T6 sequence (Q96SW2 whole entry): as the sequence (Q96SW2 whole entry) above
T6 sequence (Q16531 whole entry partner): as the sequence (Q16531 whole entry partner) above
T2 sequence (P15170 whole entry): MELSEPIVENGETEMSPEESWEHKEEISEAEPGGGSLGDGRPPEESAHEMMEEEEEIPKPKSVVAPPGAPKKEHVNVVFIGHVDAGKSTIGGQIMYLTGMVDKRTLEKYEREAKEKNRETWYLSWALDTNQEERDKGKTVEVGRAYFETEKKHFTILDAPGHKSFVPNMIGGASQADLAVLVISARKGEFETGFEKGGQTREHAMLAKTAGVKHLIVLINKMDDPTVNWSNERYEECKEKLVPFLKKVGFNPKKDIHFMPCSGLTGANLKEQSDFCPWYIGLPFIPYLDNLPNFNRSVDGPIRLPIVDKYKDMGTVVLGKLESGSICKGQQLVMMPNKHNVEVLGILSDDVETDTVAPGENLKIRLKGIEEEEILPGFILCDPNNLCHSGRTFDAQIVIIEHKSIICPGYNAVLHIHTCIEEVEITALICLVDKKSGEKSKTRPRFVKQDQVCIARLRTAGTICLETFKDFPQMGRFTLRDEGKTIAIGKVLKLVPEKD
T2 sequence (Q96SW2 whole entry): as the sequence (Q96SW2 whole entry) above
T2 sequence (Q16531 whole entry partner): as the sequence (Q16531 whole entry partner) above
T1 sequence (Q96SW2 whole entry): as the sequence (Q96SW2 whole entry) above
T3 sequence (P30291 whole entry): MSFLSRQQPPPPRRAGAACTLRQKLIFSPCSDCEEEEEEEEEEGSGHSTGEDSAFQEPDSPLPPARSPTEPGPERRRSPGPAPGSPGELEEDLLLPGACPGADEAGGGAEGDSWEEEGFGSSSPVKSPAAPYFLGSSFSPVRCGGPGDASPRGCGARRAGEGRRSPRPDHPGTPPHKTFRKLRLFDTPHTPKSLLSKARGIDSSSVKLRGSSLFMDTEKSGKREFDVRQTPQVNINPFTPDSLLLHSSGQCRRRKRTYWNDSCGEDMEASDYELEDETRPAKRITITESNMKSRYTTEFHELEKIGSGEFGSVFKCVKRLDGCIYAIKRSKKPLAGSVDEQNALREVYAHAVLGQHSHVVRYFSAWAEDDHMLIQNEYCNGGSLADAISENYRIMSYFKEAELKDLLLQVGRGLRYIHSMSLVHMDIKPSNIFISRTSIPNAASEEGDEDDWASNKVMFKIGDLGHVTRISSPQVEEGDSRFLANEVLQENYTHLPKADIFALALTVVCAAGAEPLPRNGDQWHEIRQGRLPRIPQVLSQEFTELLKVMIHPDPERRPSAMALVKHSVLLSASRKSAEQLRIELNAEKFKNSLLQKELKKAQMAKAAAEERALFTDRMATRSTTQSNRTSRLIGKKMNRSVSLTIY
T3 sequence (Q96SW2 whole entry): as the sequence (Q96SW2 whole entry) above
T3 sequence (Q16531 whole entry partner): as the sequence (Q16531 whole entry partner) above

SMILES | pIC50 [1] | substrate protein remaining % [2] | substrate protein remaining % [3] | substrate protein remaining % [4] | substrate protein remaining % [5] | substrate protein remaining % [6] | substrate protein remaining % [7]
CC1(C)CCC(CN2CC(Oc3ccc4c(c3)CN(C3CCC(=O)NC3=O)C4=O)C2)=C(c2ccc(Cl)cc2)C1 (stereo not drawn) [GT-03369, 3-(5-((1-((4′-chloro-5,5-dimethyl-3,4,5,6-tetrahydro-[1,1′-biphenyl]-2-yl)methyl)azetidin-3-yl)oxy)-1-oxoisoindolin-2-yl)piperidine-2,6-dione] | 6.00 to 6.30 | A (0%≤ substrate protein remaining % ≤80%) | A (0%≤ substrate protein remaining % ≤80%) | A (0%≤ substrate protein remaining % ≤80%) | A (0%≤ substrate protein remaining % ≤80%) | – | –
O=C1CCC(N2Cc3cc(OC4CN(C(c5ccccc5)c5ccccc5)C4)ccc3C2=O)C(=O)N1 (stereo not drawn) [GT-06185, 3-(5-((1-benzhydrylazetidin-3-yl)oxy)-1-oxoisoindolin-2-yl)piperidine-2,6-dione] | > 6.30 | A (0%≤ substrate protein remaining % ≤80%) | – | A (0%≤ substrate protein remaining % ≤80%) | – | A (0%≤ substrate protein remaining % ≤80%) | –
O=C1CCC(N2Cc3cc(OC4CCN(C(c5ccccc5)c5ccccc5)CC4)ccc3C2=O)C(=O)N1 (stereo not drawn) [GT-06195, 3-(5-((1-benzhydrylpiperidin-4-yl)oxy)-1-oxoisoindolin-2-yl)piperidine-2,6-dione] | > 6.30 | A (0%≤ substrate protein remaining % ≤80%) | A (0%≤ substrate protein remaining % ≤80%) | A (0%≤ substrate protein remaining % ≤80%) | A (0%≤ substrate protein remaining % ≤80%) | – | A (0%≤ substrate protein remaining % ≤80%)
O=C1CCC(N2Cc3cc(SC4CN(CC5=C(c6ccc(Cl)cc6)CCC(F)(F)C5)C4)ccc3C2=O)C(=O)N1 (stereo not drawn) [GT-06516, 3-(5-((1-((4′-chloro-4,4-difluoro-3,4,5,6-tetrahydro-[1,1′-biphenyl]-2-yl)methyl)azetidin-3-yl)thio)-1-oxoisoindolin-2-yl)piperidine-2,6-dione] | 5.72 to 6.00 | A (0%≤ substrate protein remaining % ≤80%) | A (0%≤ substrate protein remaining % ≤80%) | A (0%≤ substrate protein remaining % ≤80%) | – | A (0%≤ substrate protein remaining % ≤80%) | A (0%≤ substrate protein remaining % ≤80%)
O=C1CCC(N2Cc3cc(OC4CN(C(c5ccccn5)c5ccccn5)C4)ccc3C2=O)C(=O)N1 (stereo not drawn) [GT-06814, 3-(5-((1-(di(pyridin-2-yl)methyl)azetidin-3-yl)oxy)-1-oxoisoindolin-2-yl)piperidine-2,6-dione] | > 6.30 | A (0%≤ substrate protein remaining % ≤80%) | A (0%≤ substrate protein remaining % ≤80%) | A (0%≤ substrate protein remaining % ≤80%) | – | A (0%≤ substrate protein remaining % ≤80%) | A (0%≤ substrate protein remaining % ≤80%)
O=C1CCC(N2Cc3cc(OC4CCN(Cc5ccccc5-c5ccc(Cl)cc5)C4)ccc3C2=O)C(=O)N1 (stereo not drawn) [GT-06817, 3-(5-((1-((4′-chloro-[1,1′-biphenyl]-2-yl)methyl)pyrrolidin-3-yl)oxy)-1-oxoisoindolin-2-yl)piperidine-2,6-dione] | 6.00 to 6.30 | A (0%≤ substrate protein remaining % ≤80%) | A (0%≤ substrate protein remaining % ≤80%) | A (0%≤ substrate protein remaining % ≤80%) | – | A (0%≤ substrate protein remaining % ≤80%) | A (0%≤ substrate protein remaining % ≤80%)
O=C1CCC(N2Cc3cc(OC4CCN(C(c5ccccc5)c5ccccc5)C4)ccc3C2=O)C(=O)N1 (stereo not drawn) [GT-06819, 3-(5-((1-benzhydrylpyrrolidin-3-yl)oxy)-1-oxoisoindolin-2-yl)piperidine-2,6-dione] | > 6.30 | A (0%≤ substrate protein remaining % ≤80%) | A (0%≤ substrate protein remaining % ≤80%) | A (0%≤ substrate protein remaining % ≤80%) | – | A (0%≤ substrate protein remaining % ≤80%) | A (0%≤ substrate protein remaining % ≤80%)
CC1(C)CCC(CN2CC(Oc3ccc4c(c3)C(=O)N(C3CCC(=O)NC3=O)C4)C2)=C(c2ccc(Cl)cc2)C1 (stereo not drawn) [GT-06872, 3-(6-((1-((4′-chloro-5,5-dimethyl-3,4,5,6-tetrahydro-[1,1′-biphenyl]-2-yl)methyl)azetidin-3-yl)oxy)-1-oxoisoindolin-2-yl)piperidine-2,6-dione] | 5.72 to 6.00 | A (0%≤ substrate protein remaining % ≤80%) | A (0%≤ substrate protein remaining % ≤80%) | A (0%≤ substrate protein remaining % ≤80%) | – | A (0%≤ substrate protein remaining % ≤80%) | A (0%≤ substrate protein remaining % ≤80%)
CC1(C)CCC(CN2CCCC(Oc3ccc4c(c3)CN(C3CCC(=O)NC3=O)C4=O)CC2)=C(c2ccc(Cl)cc2)C1 (stereo not drawn) [GT-06929, 3-(5-((1-((4′-chloro-5,5-dimethyl-3,4,5,6-tetrahydro-[1,1′-biphenyl]-2-yl)methyl)azepan-4-yl)oxy)-1-oxoisoindolin-2-yl)piperidine-2,6-dione] | 6.00 to 6.30 | – | A (0%≤ substrate protein remaining % ≤80%) | A (0%≤ substrate protein remaining % ≤80%) | – | A (0%≤ substrate protein remaining % ≤80%) | –
CC1(C)CCC(CN2CC(Oc3cccc4c3CN(C3CCC(=O)NC3=O)C4=O)C2)=C(c2ccc(Cl)cc2)C1 (stereo not drawn) [GT-06952, 3-(4-((1-((4′-chloro-5,5-dimethyl-3,4,5,6-tetrahydro-[1,1′-biphenyl]-2-yl)methyl)azetidin-3-yl)oxy)-1-oxoisoindolin-2-yl)piperidine-2,6-dione] | 6.00 to 6.30 | A (0%≤ substrate protein remaining % ≤80%) | – | A (0%≤ substrate protein remaining % ≤80%) | A (0%≤ substrate protein remaining % ≤80%) | – | A (0%≤ substrate protein remaining % ≤80%)
CC1(C)CCC(C(=O)N2C[C@H]3CC(Sc4ccc5c(c4)CN(C4CCC(=O)NC4=O)C5=O)C[C@H]3C2)=C(c2ccc(Cl)cc2)C1 (stereo partly drawn) [GT-07015, 3-(5-(((3aR,6aS)-2-(4′-chloro-5,5-dimethyl-3,4,5,6-tetrahydro-[1,1′-biphenyl]-2-carbonyl)octahydro-cyclopenta[c]pyrrol-5-yl)thio)-1-oxoisoindolin-2-yl)piperidine-2,6-dione] | 6.00 to 6.30 | – | – | A (0%≤ substrate protein remaining % ≤80%) | – | A (0%≤ substrate protein remaining % ≤80%) | –
